{
  "source": "patent US8445636B2",
  "about": "“Antimicrobial and anticancer lipopeptides” (Yeda Research & Development Co. Ltd., priority 2003, dated 2013)",
  "type_in_all_cases": "cell-based",
  "key": {"[1]": {"tested_on": "Aspergillus flavus ATCC 9643", "details": "Table 14, lipopeptides vs parent peptides; pH 7.4"}, "[2]": {"tested_on": "B. subtilis ATCC 6051", "details": "Table 8, lipopeptides vs parent peptides; pH 7.4"}, "[3]": {"tested_on": "Escherichia coli ATCC 25922", "details": "pH 7.4", "how_it_was_run": "(§1)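 Broth microdilution in LB medium at pH 7.4 (pH 5.5 where indicated), 1×10^6 CFU/ml suspension mixed 1:1 with 2-fold serial dilutions of lipopeptide in water. After 18-20 h at 37° C, growth read by absorbance at 600 nm; MIC is the concentration giving 100% growth inhibition.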"}, "[4]": {"tested_on": "Enterococcus faecalis ATCC 29212", "details": "Table 4; pH 7.4", "how_it_was_run": "as §1"}, "[5]": {"tested_on": "Pseudomonas aeruginosa ATCC 27853", "how_it_was_run": "as §1"}, "[6]": {"tested_on": "methicilin-resistant Staphylococcus aureus (MRSA) ATCC 700698", "details": "Table 4; pH 7.4", "how_it_was_run": "as §1"}, "[7]": {"tested_on": "Enterobacter cloacae ATCC 49141", "details": "Table 4; pH 7.4", "how_it_was_run": "as §1"}, "[8]": {"tested_on": "Acinetobacter baumannii ATCC 19606", "details": "pH 7.4", "how_it_was_run": "as §1"}, "[9]": {"tested_on": "Staphylococcus aureus ATCC 6538P", "how_it_was_run": "as §1"}, "[10]": {"tested_on": "Aspergillus niger ATCC 9642", "details": "Table 14, lipopeptides vs parent peptides; pH 7.4", "protocol": "The antifungal activity of the lipopeptides was examined in sterile 96-well plates (Nunc F96 microtiter plates) in a final volume of 200 μL as follows: 100 µl of a suspension containing fungi at a concentration of 1×10^4 Colony-Forming Units (CFU)/ml in culture medium (RPMI 1640, 0.165 M MOPS with L-glutamine, without NaHCO3) at pH 7.4 or pH 5.5 (adjustment of the pH was done by diluted solutions of HCl and NaOH) were added to 100 μl of water containing the peptide in serial 2-fold dilutions in water. The fungi were incubated in the presence of the lipopeptides for 24-48 h at 35° C. in a Binder KB115 incubator under agitation. Growth inhibition was determined by measuring the absorbance at 620 nm with a Microplate autoreader E1309 (Bio-Tek Instruments). Antifungal activity is expressed as the minimal inhibitory concentration (MIC), the concentration at which 100% inhibition of fungi growth was observed after the incubation time mentioned above. The fungi used were: Aspergillus niger ATCC 9642, Candida albicans ATCC 10231 and Cryptococcus neoformans ATCC 66031. If not indicated otherwise, the fungi growth was detected at pH 7.4."}, "[11]": {"tested_on": "Cryptococcus neoformans ATCC MYA-422", "test": "microbe, parasite or virus in culture"}, "[12]": {"tested_on": "human red blood cells (hRBC)", "test": "Hemolytic activity, release of hemoglobin at 540 nm", "protocol": "Fresh human red blood cells (hRBC) with EDTA were rinsed 3 times with PBS (35 mM phosphate buffer/0.15 M NaCl, pH 7.3) by centrifugation for 10 min at 800 g and resuspended in PBS. Peptides dissolved in PBS were then added to 50 μl of a solution of the stock hRBC in PBS to reach a final volume of 100 μl (final erythrocyte concentration, 4% v/v). The resulting suspension was incubated under agitation for 60 min at 37° C. The samples were then centrifuged at 800×g for 10 min. Release of hemoglobin was monitored by measuring the absorbance of the supernatant at 540 nm. Controls for zero hemolysis (blank) and 100% hemolysis consisted of hRBC suspended in PBS and Triton 1%, respectively."}, "[13]": {"tested_on": "Aspergillus fumigatus ATCC 26430", "test": "microbe, parasite or virus in culture"}, "[14]": {"tested_on": "Candida albicans ATCC 10231", "test": "microbe, parasite or virus in culture", "how_it_was_run": "(§2)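 MIC = lowest concentration giving 100% growth inhibition by A620 after 24-48 h at 35 °C with agitation. Inoculum: 1×10^4 CFU/ml (pre-mix) in RPMI 1640/0.165 M MOPS; pH 7.4 by default, 5.5 where noted. Peptide as twofold dilution series in water.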"}, "[15]": {"tested_on": "Cryptococcus neoformans ATCC 66031", "test": "microbe, parasite or virus in culture", "details": "Table 10; pH 7.4", "how_it_was_run": "as §2"}, "[16]": {"tested_on": "E. coli ATCC 35218", "details": "ATCC 35218, pH 7.4", "how_it_was_run": "as §1"}, "[17]": {"tested_on": "E. aerogenes ATCC 35029", "details": "ATCC 35029, pH 7.4", "how_it_was_run": "as §1"}, "[18]": {"details": "Table 8, lipopeptides vs parent peptides"}, "[19]": {"details": "Table 8, lipopeptides vs parent peptides, pH 7.4"}, "[20]": {"details": "Table 14, lipopeptides vs parent peptides, pH 7.4"}},
  "note": "Where two headings read alike, the source gives them in different places. Non-standard residues stand in square brackets, D forms with d. Residues, ends and D or L forms follow the SMILES beside them. *: point of attachment. Palmitoyl = CCCCCCCCCCCCCCCC(=O)*; Decanoyl = CCCCCCCCCC(=O)*",
  "data": [
    {"compound": "CCCCCCCCCCCCCCCC(=O)N[C@@H](CCCCN)C(=O)N[C@@H](C)C(=O)N[C@H](C)C(=O)N[C@H](C)C(=O)N[C@@H](CCCCN)C(=O)N[C@@H](C)C(=O)N[C@@H](C)C(=O)N[C@H](C)C(=O)N[C@@H](CCCCN)C(=O)N[C@H](C)C(=O)N[C@@H](C)C(=O)N[C@@H](CCCCN)C(N)=O", "note": "[lipopeptide 5, (CH3—(CH2)14—CO—)-Lys-Ala-D-Ala-D-Ala-Lys-Ala-Ala-D-Ala-Lys-D-Ala-Ala-Lys-NH2] (Palmitoyl-KA[dA][dA]KAA[dA]K[dA]AK-NH2)", "values": [
      {"measurement": "Minimal Inhibitory Concentration, Aspergillus flavus (ATCC 9643)", "setting": "[1]", "value": 80, "unit": "µM"},
      {"measurement": "Minimal Inhibitory Concentration, B. subtilis (ATCC 6051)", "setting": "[2]", "value": 3.125, "unit": "µM"},
      {"measurement": "Minimal Inhibitory Concentration, E. coli", "setting": "[3]; Table 4", "value": 6.25, "unit": "µM"},
      {"measurement": "Minimal Inhibitory Concentration, E. coli (ATCC 25922)", "setting": "[3]; [18]", "value": 6.25, "unit": "µM"},
      {"measurement": "Minimal Inhibitory Concentration, E. faecalis", "setting": "[4]", "value": 12.5, "unit": "µM"},
      {"measurement": "Minimal Inhibitory Concentration, P. Aeruginosa", "setting": "[5]; Table 4, pH 7.4", "value": 6.25, "unit": "µM"},
      {"measurement": "Minimal Inhibitory Concentration, P. aeruginosa ATCC 27853", "setting": "[5]; [19]", "value": 6.25, "unit": "µM"},
      {"measurement": "Minimal Inhibitory Concentration, S. aureus (MRSA)", "setting": "[6]", "value": 12.5, "unit": "µM"},
      {"measurement": "Minimal Inhibitory Concentration, E. cloacae", "setting": "[7]", "value": 25, "unit": "µM"},
      {"measurement": "Minimal Inhibitory Concentration, A. Baumaannii", "setting": "[8]; Table 4", "value": 6.25, "unit": "µM"},
      {"measurement": "Minimal Inhibitory Concentration, A. baumannii ATCC 19606", "setting": "[8]; [18]", "value": 6.25, "unit": "µM"},
      {"measurement": "Minimal Inhibitory Concentration, S. aureus", "setting": "[9]; Table 4, pH 7.4", "value": 12.5, "unit": "µM"},
      {"measurement": "Minimal Inhibitory Concentration, S. aureus ATCC 6538P", "setting": "[9]; [19]", "value": 12.5, "unit": "µM"},
      {"measurement": "Minimal Inhibitory Concentration, Aspergillus niger (ATCC 9642)", "setting": "[10]", "value": 10, "unit": "µM"},
      {"measurement": "Minimal Inhibitory Concentration, Cryptococcus neoformans (ATCC MYA-422)", "setting": "[11]; [20]", "value": 1.56, "unit": "µM"},
      {"measurement": "hemolytic activity", "setting": "[12]; at concentrations lower than 12 μM, human red blood cells (FIGS. 1-5)", "value": "do not exhibit significant hemolytic activity"},
      {"measurement": "hemolytic activity", "setting": "[12]; at concentrations lower than 12.5 μM, human red blood cells, 1 h", "value": "not hemolytic"},
      {"measurement": "Minimal Inhibitory Concentration, A. fumigatus ATCC 26430", "setting": "[13]; Table 10, pH 7.4", "value": 100, "unit": "µM"},
      {"measurement": "Minimal Inhibitory Concentration, Aspergillus fumigatus (ATCC 26430)", "setting": "[13]; [20]", "value": 100, "unit": "µM"},
      {"measurement": "Minimal Inhibitory Concentration, C. albicans ATCC 10231", "setting": "[14]; Table 10, pH 7.4", "value": 12.5, "unit": "µM"},
      {"measurement": "MIC", "setting": "[14]; Table 14, lipopeptides vs parent peptides, pH 7.4, read-out: Minimal Inhibitory Concentration, Candida Albicans (ATCC 10231)", "value": 12.5, "unit": "µM"},
      {"measurement": "Minimal Inhibitory Concentration, C. neoformans ATCC 66031", "setting": "[15]", "value": 1.56, "unit": "µM"}
    ]},
    {"compound": "CCCCCCCCCC(=O)N[C@H](CC(C)C)C(=O)N[C@@H](CCCCN)C(=O)N[C@@H](CCCCN)C(=O)N[C@H](CC(C)C)C(=O)N[C@H](CC(C)C)C(=O)N[C@@H](CCCCN)C(=O)N[C@@H](CCCCN)C(=O)N[C@H](CC(C)C)C(=O)N[C@H](CC(C)C)C(=O)N[C@@H](CCCCN)C(=O)N[C@@H](CCCCN)C(=O)N[C@H](CC(C)C)C(N)=O", "note": "[lipopeptide 21, (CH3-(CH2)8-CO-)-D-Leu-Lys-Lys-D-Leu-D-Leu-Lys-Lys-D-Leu-D-Leu-Lys-Lys-D-Leu-NH2] (Decanoyl-[dL]KK[dL][dL]KK[dL][dL]KK[dL]-NH2)", "values": [
      {"measurement": "Minimal Inhibitory Concentration, P. aeruginosa ATCC 27853", "setting": "[5]; ATCC 27853, pH 7.4", "value": 12.5, "unit": "µM"},
      {"measurement": "Minimal Inhibitory Concentration, E. coli ATCC 35218", "setting": "[16]", "value": 12.5, "unit": "µM"},
      {"measurement": "Minimal Inhibitory Concentration, E. aerogenes ATCC 35029", "setting": "[17]", "value": 50, "unit": "µM"},
      {"measurement": "Minimal Inhibitory Concentration, S. aureus ATCC 6538P", "setting": "[9]; ATCC 6538, pH 7.4", "value": 6.25, "unit": "µM"},
      {"measurement": "Minimal Inhibitory Concentration, C. neoformans ATCC MYA-422", "setting": "[11]; ATCC MYA-422, pH 7.4", "value": 1.56, "unit": "µM"},
      {"measurement": "Minimal Inhibitory Concentration, A. fumigatus ATCC 26430", "setting": "[13]; ATCC 26430, pH 7.4", "value": 12.5, "unit": "µM"},
      {"measurement": "Minimal Inhibitory Concentration, C. albicans ATCC 10231", "setting": "[14]; ATCC 10231, pH 7.4", "value": 25, "unit": "µM"}
    ]}
  ]
}
